Like-named read-outs stand apart in the source and are kept apart here.
What was measured:
Test in all cases: Post-emergence efficacy, Method A
Type in all cases: in vivo
Lolium perenne (LOLPE) = conditions: Lolium perenne, post-emergence, 312 h, evaluated after 13 days
Procedure: (§1) Seeds of a variety of test species were sown in standard soil in pots. After cultivation for 14 days (post-emergence) under controlled conditions in a glasshouse (at 24/16° C., day/night; 14 hours light; 65% humidity), the plants were sprayed with an aqueous spray solution derived from the dissolution of the technical active ingredient formula (I) in a small amount of acetone and a special solvent and emulsifier mixture referred to as IF50 (11.12% Emulsogen EL360 TM+44.44% N-methylpyrrolidone+44.44% Dowanol DPM glycol ether), to create a 50 g/I solution which was then diluted to required concentration using 0.25% or 1% Empicol ESC70 (Sodium lauryl ether sulphate)+1% ammonium sulphate as diluent. The test plants were then grown in a glasshouse under controlled conditions (at 24/16° C., day/night; 14 hours light; 65% humidity) and watered twice daily. After 13 days the test was evaluated (100=total damage to plant; 0=no damage to plant).
(§2) Ipomoea hederacea (IPOHE), Euphorbia heterophylla (EPHHL), Chenopodium album (CHEAL), Amaranthus palmeri (AMAPA), Lolium perenne (LOLPE), Digitaria sanguinalis (DIGSA), Eleusine indica (ELEIN), Echinochloa crus-galli (ECHCG), Setaria faberi (SETFA)

[1] = tested on: Echinochloa crus-galli (ECHCG); conditions: Echinochloa crus-galli, post-emergence, 312 h, evaluated after 13 days
Procedure: as §1, §2

[2] = tested on: Ipomoea hederacea (IPOHE); conditions: Ipomoea hederacea, post-emergence, 312 h, evaluated after 13 days
Procedure: as §1, §2

[3] = tested on: Amaranthus palmeri (AMAPA); conditions: Amaranthus palmeri, post-emergence, 312 h, evaluated after 13 days
Procedure: as §1, §2

[4] = tested on: Chenopodium album (CHEAL); conditions: Chenopodium album, post-emergence, 312 h, evaluated after 13 days
Procedure: as §1, §2

Setaria faberi (SETFA) = conditions: Setaria faberi, post-emergence, 312 h, evaluated after 13 days
Procedure: as §1, §2

[5] = tested on: Digitaria sanguinalis (DIGSA); conditions: Digitaria sanguinalis, post-emergence, 312 h, evaluated after 13 days
Procedure: as §1, §2

Eleusine indica (ELEIN) = conditions: Eleusine indica, post-emergence, 312 h, evaluated after 13 days
Procedure: as §1, §2

[6] = tested on: Euphorbia heterophylla (EPHHL); conditions: Euphorbia heterophylla, post-emergence, 312 h, evaluated after 13 days
Procedure: as §1, §2

[7] = Application rate 500 g/Ha, 100=total damage to plant, 0=no damage to plant, read-out: Control of weed species after post-emergence application, LOLPE
[8] = Application rate 500 g/Ha, 100=total damage to plant, 0=no damage to plant, read-out: Control of weed species after post-emergence application, ECHCG
[9] = Application rate 500 g/Ha, 100=total damage to plant, 0=no damage to plant, read-out: Control of weed species after post-emergence application, IPOHE
[10] = Application rate 500 g/Ha, 100=total damage to plant, 0=no damage to plant, read-out: Control of weed species after post-emergence application, AMAPA
[11] = Application rate 500 g/Ha, 100=total damage to plant, 0=no damage to plant, read-out: Control of weed species after post-emergence application, CHEAL
[12] = Application rate 500 g/Ha, 100=total damage to plant, 0=no damage to plant, read-out: Control of weed species after post-emergence application, SETFA
[13] = Application rate 500 g/Ha, 100=total damage to plant, 0=no damage to plant, read-out: Control of weed species after post-emergence application, DIGSA
[14] = Application rate 500 g/Ha, 100=total damage to plant, 0=no damage to plant, read-out: Control of weed species after post-emergence application, ELEIN
[15] = Application rate 500 g/Ha, 100=total damage to plant, 0=no damage to plant, read-out: Control of weed species after post-emergence application, EPHHL
[16] = Application Rate 500 g/Ha, Method A, read-out: Control of weed species after post-emergence application, LOLPE (100=total damage to plant; 0=no damage to plant)
[17] = Application Rate 500 g/Ha, Method A, read-out: Control of weed species after post-emergence application, ECHCG (100=total damage to plant; 0=no damage to plant)
[18] = Application Rate 500 g/Ha, Method A, read-out: Control of weed species after post-emergence application, IPOHE (100=total damage to plant; 0=no damage to plant)
[19] = Application Rate 500 g/Ha, Method A, read-out: Control of weed species after post-emergence application, AMAPA (100=total damage to plant; 0=no damage to plant)
[20] = Application Rate 500 g/Ha, Method A, read-out: Control of weed species after post-emergence application, CHEAL (100=total damage to plant; 0=no damage to plant)
[21] = Application Rate 500 g/Ha, Method A, read-out: Control of weed species after post-emergence application, SETFA (100=total damage to plant; 0=no damage to plant)
[22] = Application Rate 500 g/Ha, Method A, read-out: Control of weed species after post-emergence application, DIGSA (100=total damage to plant; 0=no damage to plant)
[23] = Application Rate 500 g/Ha, Method A, read-out: Control of weed species after post-emergence application, ELEIN (100=total damage to plant; 0=no damage to plant)
[24] = Application Rate 500 g/Ha, Method A, read-out: Control of weed species after post-emergence application, EPHHL (100=total damage to plant; 0=no damage to plant)

Compound | pest or weed control at 500 g/ha (Lolium perenne (LOLPE); [7]) [%] | pest or weed control at 500 g/ha [1, 8] [%] | pest or weed control at 500 g/ha [2, 9] [%] | pest or weed control at 500 g/ha [3, 10] [%] | pest or weed control at 500 g/ha [4, 11] [%] | pest or weed control at 500 g/ha (Setaria faberi (SETFA); [12]) [%] | pest or weed control at 500 g/ha [5, 13] [%] | pest or weed control at 500 g/ha (Eleusine indica (ELEIN); [14]) [%] | pest or weed control at 500 g/ha [6, 15] [%] | pest or weed control at 500 g/ha (Lolium perenne (LOLPE); [16]) [%] | pest or weed control at 500 g/ha [1, 17] [%] | pest or weed control at 500 g/ha [2, 18] [%] | pest or weed control at 500 g/ha [3, 19] [%] | pest or weed control at 500 g/ha [4, 20] [%] | pest or weed control at 500 g/ha (Setaria faberi (SETFA); [21]) [%] | pest or weed control at 500 g/ha [5, 22] [%] | pest or weed control at 500 g/ha (Eleusine indica (ELEIN); [23]) [%] | pest or weed control at 500 g/ha [6, 24] [%]
Cc1cnc(-c2cc[n+](CCC(=O)O)nc2)nc1 [Compound A36] | 80 | 90 | 30 | 100 | 90 | 100 | 90 | 100 | 90 | – | – | – | – | – | – | – | – | –
N[C@@H](C[n+]1ccc(-c2ncccn2)cn1)C(=O)O [Compound A208, [(1S)-1-carboxy-2-(4-pyrimidin-2-ylpyridazin-1-ium-1-yl)ethyl]ammonium 2,2,2-trifluoroacetate] | – | – | – | – | – | – | – | – | – | 10 | 30 | 20 | 100 | 80 | 60 | 40 | 60 | 50
CCOP(=O)(CCC[n+]1ccc(-c2ncccn2)cn1)OCC [Compound A204] | – | – | – | – | – | – | – | – | – | 0 | 0 | 0 | 10 | 20 | 0 | 0 | 0 | 0
N#Cc1ccnc(-c2cc[n+](CCCS(=O)(=O)[O-])nc2)n1 [Compound A147] | 40 | 30 | 60 | 40 | 50 | 40 | 20 | 20 | 70 | – | – | – | – | – | – | – | – | –
O=S(=O)([O-])CC[n+]1ccc(-c2cnc(C(F)(F)F)cn2)cn1 [Compound A112] | 40 | 40 | 40 | 100 | 100 | 70 | 40 | 50 | 80 | – | – | – | – | – | – | – | – | –
Cc1cc(F)cnc1-c1cc[n+](CCCS(=O)(=O)[O-])nc1 [Compound A196] | – | – | – | – | – | – | – | – | – | 0 | 0 | 20 | 30 | 40 | 0 | 0 | 10 | 30
O=S(=O)([O-])CC[n+]1ccc(-c2ncc(CO)cn2)cn1 [Compound A170] | – | – | – | – | – | – | – | – | – | 50 | 80 | 40 | 100 | 100 | 80 | 40 | 40 | 70
O=S(=O)([O-])CC[n+]1ccc(-c2ccc(F)cn2)cn1 [Compound A72] | 20 | 40 | 40 | 60 | 40 | 40 | 30 | 30 | 70 | – | – | – | – | – | – | – | – | –
O=C([O-])CC[n+]1ccc(-c2ncc(C3CC3)cn2)cn1 [Compound A51] | 60 | 60 | 20 | – | 70 | 70 | 90 | 90 | 30 | – | – | – | – | – | – | – | – | –
Cc1cc(C)nc(-c2cc[n+](CCS(=O)(=O)[O-])nc2)n1 [Compound A48] | 70 | 70 | 20 | – | 100 | 100 | 90 | 100 | 90 | – | – | – | – | – | – | – | – | –
O=c1cc(-c2cc[n+](CCS(=O)(=O)[O-])nc2)nc[nH]1 [Compound A57] | 10 | 40 | 10 | – | 60 | 60 | 80 | 40 | 60 | – | – | – | – | – | – | – | – | –
Nc1cc(-c2cc[n+](CCC(=O)O)nc2)ncn1 [Compound A163] | – | – | – | – | – | – | – | – | – | 70 | 40 | 30 | 100 | 60 | – | 50 | 90 | 50
O=S(=O)([O-])CC[n+]1ccc(-c2nccc(C(F)(F)F)n2)cn1 [Compound A23] | 70 | 70 | 60 | – | 80 | 100 | 80 | 100 | 90 | – | – | – | – | – | – | – | – | –
COc1cc(OC)nc(-c2cc[n+](CCS(=O)(=O)[O-])nc2)n1 [Compound A32] | 30 | 70 | 40 | – | 70 | 80 | 90 | 100 | 70 | – | – | – | – | – | – | – | – | –
O=C([O-])CC[n+]1ccc(-c2ncc(Cl)cn2)cn1 [Compound A43] | 20 | 70 | 30 | – | 90 | 100 | 90 | 100 | 80 | – | – | – | – | – | – | – | – | –

— patent publication US20220125051A1, “PRE-HARVEST DESICCATION METHOD” (SYNGENTA CROP PROTECTION AG, priority 2019, published 2022)
